Read-outs that look alike come from different tables or passages of the source.
Experiments:
HCV luciferase replicon [1] = test: IC50 assay: inhibition of the HCV luciferase replicon in Huh7 cells; format: cell-based; details: for IC50: Hepatitis C virus; for Therapeutic Index (TC50/IC50): TC50 in Huh7 / IC50 HCV replicon, 48 h
Experimental: After 48 h of treatment at 37° C., the media in each well was removed, the cells were gently washed once with phosphate buffered saline (PBS) and subsequently lysed by the addition of Glo Lysis Buffer (Promega). After a 15 min incubation at room temperature to allow for complete cell lysis, Bright-Glo luciferase reagent (Promega) was added to each well and the relative luciferase activity in each well was determined by using a Glowmax 96 microplate luminometer (Promega).
IC50 values determined using the above methods for inhibition of the HCV luciferase replicon in Huh7 cells are set forth in Table 1.
All compounds were purified by HPLC.

[2] = TC50 assay in Huh7 cells, 48 h (CellTiter 96); details: human
Experimental: (§1) Huh7 cells were maintained at 37° C. in a humidified atmosphere at 5% CO2 in DMEM containing 10% FBS. […] The cells were then treated with each compound at concentrations ranging from 500 μM to 0 μM in triplicate in DMEM media containing 2% FBS and 0.5% DMSO and without phenol red. After 48 h of treatment at 37° C., the relative number of living cells in each well was determined by using the CellTiter 96 system (Promega) according to the manufacturer's instructions. The 3-(4,5-dimethylthiazol-2-yl)-5-(3-carboxymethoxyphenyl)-2-(4-sulfophenyl)-2H-tetrazolium (MTS) and phenazine methosulfate (PMS) reagents were added to each well of the 96-well plate and the plate was incubated at 37° C. for approximately 2 h. The absorbance at 490 nm and 650 nm in each well was then determined by using a Flexstation 3 microplate reader ([…]). The absorbance determined at 650 nm was then subtracted from the absorbance determined at 490 nm to correct for light scattering. The corrected absorbance values representing the relative number of live cells in each condition were then plotted as a function of compound concentration, and the data were then fit to the following sigmoidal Emax equation by using Kaleidagraph: y=(Emax*x^Slope)/(TC50^Slope+x^Slope) where y is the relative corrected absorbance value, Emax is the maximum relative inhibition, x is the compound concentration, TC50 is the concentration of the compound at which the total cell population is reduced by 50%, and Slope is the slope of the curve.
The data in Table 1 were determined for cells exposed to drug for 48 h. The IC50 is the concentration of each compound necessary to inhibit the replication of the HCV luciferase replicon to 50%. “TC50,” refers to toxic concentration necessary to reduce the cell population by 50%. All compounds were purified by HPLC.

RPK9 cells = test: TC50 assay in gemcitabine resistant (dCK deficient) RPK9 cells, 48 h; details: read-out: TC50 (μM) in RPK9 cells at 48 hr
Experimental: as §1
(§2) PK9 and RPK9 cells were maintained at 37° C. in a humidified atmosphere at 5% CO2 in Roswell Park Memorial Institute (RPMI) media containing 10% FBS. […] The cells were then treated with each compound at concentrations ranging from […] to 0 μM in triplicate in RPMI media containing 2% FBS and 0.5% DMSO and without phenol red. […] The RPK9 cells were derived from the parental PK9 cell line, and are deficient for dCK activity due to the partial deletion of the dCK gene.

HEPG2 = test: TC50 assay with human cancer cell lines, 96 h: HEPG2; format: cell-based; details: HepG2, 96 h, read-out: TC50 HEPG2 (μM)
Experimental: (§3) Huh7 cells were maintained at 37° C. in a humidified atmosphere at 5% CO2 in DMEM containing 10% FBS. […] The cells were then treated with each compound at concentrations ranging from 500 μM to 0 μM in triplicate in DMEM media containing 2% FBS and 0.5% DMSO and without phenol red. After 48 h of treatment at 37° C., the relative number of living cells in each well was determined by using the CellTiter 96 system (Promega) according to the manufacturer's instructions. The 3-(4,5-dimethylthiazol-2-yl)-5-(3-carboxymethoxyphenyl)-2-(4-sulfophenyl)-2H-tetrazolium (MTS) and phenazine methosulfate (PMS) reagents were added to each well of the 96-well plate and the plate was incubated at 37° C. for approximately 2 h. The absorbance at 490 nm and 650 nm in each well was then determined by using a Flexstation 3 microplate reader (Molecular Dynamics). The absorbance determined at 650 nm was then subtracted from the absorbance determined at 490 nm to correct for light scattering. The corrected absorbance values representing the relative number of live cells in each condition were then plotted as a function of compound concentration, and the data were then fit to the following sigmoidal Emax equation by using Kaleidagraph: y=(Emax*x^Slope)/(TC50^Slope+x^Slope) where y is the relative corrected absorbance value, Emax is the maximum relative inhibition, x is the compound concentration, TC50 is the concentration of the compound at which the total cell population is reduced by 50%, and Slope is the slope of the curve.
(§4) Huh7, HEPG2, HEK293, MCF-7 and BxPC3 cell lines were maintained at 37° C. in a humidified atmosphere at 5% CO2 in DMEM containing 10% FBS. […] The cells were then treated with each compound at concentrations ranging from 500 μM to 0 μM in triplicate in DMEM media containing 2% FBS and 0.5% DMSO and without phenol red.

HEK293 = test: TC50 assay with human cancer cell lines, 96 h: HEK293; format: cell-based
Experimental: as §3, §4

BxPC3 = test: TC50 assay with human cancer cell lines, 96 h: BxPC3; format: cell-based
Experimental: as §3, §4

Huh7 = test: TC50 assay with human cancer cell lines, 96 h: Huh7; format: cell-based
Experimental: as §3, §4

PK9 cells = test: TC50 assay in PK9 cells, 48 h; details: Homo sapiens, PK9, 48 h, read-out: TC50 (μM) in PK9 cells at 48 hr
Experimental: as §1, §2

MCF-7 = test: TC50 assay with human cancer cell lines, 96 h: MCF-7; format: cell-based
Experimental: as §3, §4

HCV luciferase replicon [3] = test: Isobologram analysis of synergism with antiviral compound in HCV luciferase replicon; format: cell-based
Experimental: Isobologram analysis was conducted to assess the potential synergistic interaction of representative disclosed compounds with representative antiviral compounds. The isobolgram analysis was conducted as previously described by Chou and Talalay (see Chou T. C. and Talalay P. “Analysis of combined drug effects: a new look at a very old problem.” Trends Pharmacol Sci 1983; 4:450-4; and Chou T. C. and Talalay P. “Quantitative analysis of dose-effect relationships: the combined effects of multiple drugs or enzyme inhibitors.” Adv Enzyme Regul 1984; 22:27-55; both of which are incorporated herein by reference in their entirety). The definitions of synergism are those described by Chou (see Chou, T. C. (2006) Theoretical basis, experimental design, and computerized simulation of synergism and antagonism in drug combination studies. Pharmacol Rev. 58(3):621-81, which is incorporated herein by reference in its entirety).
In the synergism studies described herein, the antiviral compound shown in Table 6 was assessed in combination with a representative disclosed compound, Compound 1.

[4] = Huh-7, Huh7 cells containing HCV luciferase replicon, 48 h exposure, read-out: IC50
[5] = HEK293, 96 h, read-out: TC50 HEK293 (μM)
[6] = BXPC-3, 96 h, read-out: TC50 BxPC3 (μM)
[7] = Huh-7, 96 h, read-out: TC50 Huh7 (μM)
[8] = MCF7, 96 h, read-out: TC50 MCF-7 (μM)

| SMILES | IC50 (HCV luciferase replicon [1]; [4]) [µM] | Therapeutic Index (TC50/IC50) (HCV luciferase replicon [1]) | CC50 at 48 h ([2]; Huh7 cells) [µM] | further results |
| --- | --- | --- | --- | --- |
| O=C(Nc1ccn(C2O[C@H](CO)[C@@H](O)C2(F)F)c(=O)n1)c1ccc2c(c1)CCCC2 (stereo partly drawn) [Compound 5, N-(1-((4R,5R)-3,3-difluoro-4-hydroxy-5-(hydroxymethyl)tetrahydrofuran-2-yl)-2-oxo-1,2-dihydropyrimidin-4-yl)-5,6,7,8-tetrahydronaphthalene-2-carboxamide] | 0.086 | 1,535 | 132 |  |
| COc1cc(C(=O)Nc2ccn([C@@H]3O[C@H](CO[P@@](=O)(N[C@@H](C)C(=O)OC(C)C)Oc4ccccc4)C(O)C3(F)F)c(=O)n2)cc(OC)c1OC (stereo in doubt) [Compound 3] |  | 210 |  | CC50 (RPK9 cells): 24.2 ± 4.2 µM; CC50 (HEPG2): 1.57 µM; IC50 (HCV luciferase replicon [1]; Huh-7, 48 h): 0.274 ± 0.08 µM; CC50 (HEK293; [5]): 1.1 µM; CC50 at 48 h [2]: 57.5 ± 11.6 µM; CC50 (BxPC3; [6]): 4.07 µM; CC50 (Huh7; [7]): 8.37 µM; CC50 (PK9 cells): 18.5 ± 11.9 µM; CC50 (MCF-7; [8]): 0.683 µM |
| CC(C)OC(=O)[C@H](C)N[P@](=O)(OC[C@H]1O[C@@H](n2ccc(N)nc2=O)C(F)(F)C1O)Oc1ccccc1 (some centres unmarked) [Phosphorylated analog of Gemcitabine] |  |  |  | CC50 (RPK9 cells): 21 µM; CC50 (HEPG2): 0.89 µM; CC50 (HEK293; [5]): 0.38 µM; CC50 (BxPC3; [6]): 0.76 µM; CC50 (Huh7; [7]): 4.15 µM; CC50 (PK9 cells): 11.2 µM; CC50 (MCF-7; [8]): 0.115 µM |
| CCCC(CCC)C(=O)Nc1ccn([C@@H]2O[C@@H]3CO[P@@](=O)(OC(C)C)O[C@H]3C2(F)F)c(=O)n1 [Compound 2, N-(1-((2S,4aR,6R,7aR)-7,7-difluoro-2-isopropoxy-2-oxidotetrahydro-4H-furo[3,2-d][1,3,2]-dioxaphosphinin-6-yl)-2-oxo-1,2-dihydropyrimidin-4-yl)-2-propylpentanamide] | 7.48 | 23.4 | 175 ± 23 | CC50 (RPK9 cells): 537 ± 55 µM; CC50 (PK9 cells): 716 ± 104 µM |
| O=C(Nc1ccn(C2O[C@H](CO)[C@@H](O)C2(F)F)c(=O)n1)c1ccc2c(c1)CCC2 (stereo partly drawn) [Compound 12, N-(1-((4R,5R)-3,3-difluoro-4-hydroxy-5-(hydroxymethyl)tetrahydrofuran-2-yl)-2-oxo-1,2-dihydropyrimidin-4-yl)-2,3-dihydro-1H-indene-5-carboxamide] | 0.0586 | 6,451 | 378 |  |
| O=C(Nc1ccn(C2O[C@H](CO)[C@@H](O)C2(F)F)c(=O)n1)c1cccc2c1CCCC2 (stereo partly drawn) [Compound 9, N-(1-((4R,5R)-3,3-difluoro-4-hydroxy-5-(hydroxymethyl)tetrahydrofuran-2-yl)-2-oxo-1,2-dihydropyrimidin-4-yl)-5,6,7,8-tetrahydronaphthalene-1-carboxamide] | 0.161 | 571 | 92 |  |
| O=C(Nc1ccn(C2O[C@H](CO)[C@@H](O)C2(F)F)c(=O)n1)c1ccc2ccccc2c1 (stereo partly drawn) [Compound 7, N-(1-((4R,5R)-3,3-difluoro-4-hydroxy-5-(hydroxymethyl)tetrahydrofuran-2-yl)-2-oxo-1,2-dihydropyrimidin-4-yl)-2-naphthamide] | 0.126 | 992 | 125 |  |
| O=C(Nc1ccn(C2O[C@H](CO)[C@@H](O)C2(F)F)c(=O)n1)c1ccc2c(c1)OCO2 (some centres unmarked) [Non-phosphorylated analog of Compound 4] | 0.0598 ± 0.0084 | 7910 | 473 ± 74 | CC50 (RPK9 cells): > 500 µM; CC50 (HEK293; HEK293, 96 h of treatment, read-out: TC50 HEK293): 4.09 µM; CC50 (BxPC3; BXPC-3, 96 h of treatment, read-out: TC50 BxPC3): 0.72 µM; CC50 (Huh7; Huh-7, 96 h of treatment, read-out: TC50 Huh7): 7.04 µM; CC50 (MCF-7; MCF7, 96 h of treatment, read-out: TC50 MCF-7): 1.19 µM |
| O=C(Nc1ccn(C2O[C@H](CO)[C@@H](O)C2(F)F)c(=O)n1)c1ccc2c(c1)C(=O)c1ccccc1C2=O (stereo partly drawn) [Compound 8, N-(1-((4R,5R)-3,3-difluoro-4-hydroxy-5-(hydroxymethyl)tetrahydrofuran-2-yl)-2-oxo-1,2-dihydropyrimidin-4-yl)-9,10-dioxo-9,10-dihydroanthracene-2-carboxamide] | 0.0128 | 19,450 | 249 |  |
| O=C(Nc1ccn(C2O[C@H](CO)[C@@H](O)C2(F)F)c(=O)n1)c1ccc2cc(Br)ccc2c1 (stereo partly drawn) [Compound 6, 6-bromo-N-(1-((4R,5R)-3,3-difluoro-4-hydroxy-5-(hydroxymethyl)tetrahydrofuran-2-yl)-2-oxo-1,2-dihydropyrimidin-4-yl)-2-naphthamide] | 0.185 | 400 | 74 |  |
| O=C(Nc1ccn(C2O[C@H](CO)[C@@H](O)C2(F)F)c(=O)n1)C1Cc2ccccc2C1 (stereo partly drawn) [Compound 11, N-(1-((4R,5R)-3,3-difluoro-4-hydroxy-5-(hydroxymethyl)tetrahydrofuran-2-yl)-2-oxo-1,2-dihydropyrimidin-4-yl)-2,3-dihydro-1H-indene-2-carboxamide] | 0.01 | >50,000 | > 500 |  |
| COc1ccc2cc(C(=O)Nc3ccn(C4O[C@H](CO)[C@@H](O)C4(F)F)c(=O)n3)ccc2c1 (stereo partly drawn) [Compound 10, N-(1-((4R,5R)-3,3-difluoro-4-hydroxy-5-(hydroxymethyl)tetrahydrofuran-2-yl)-2-oxo-1,2-dihydropyrimidin-4-yl)-6-methoxy-2-naphthamide] | 0.0935 | 1,796 | 168 |  |
| COC(=O)N[C@H](C(=O)N1CCC[C@H]1c1ncc(-c2ccc(-c3ccc(-c4cnc([C@@H]5CCCN5C(=O)[C@@H](NC(=O)OC)C(C)C)[nH]4)cc3)cc2)[nH]1)C(C)C [BMS-790052, carbamic acid, N,N′-[[1,1′-biphenyl]-4,4′-diylbis[1H-imidazole-5,2-diyl-(2S)-2,1-pyrrolidinediyl[(1S)-1-(1-methylethyl)-2-oxo-2,1-ethanediyl]]]bis-, C,C′-dimethyl ester, reference compound] |  |  |  | Combination Index (HCV luciferase replicon [3]; Compound 1 0.0 nM, BMS-790052 0.020 nM): 1.000; concentration of the single agent on the IC50 isobologram (Combination Index 1.000) (HCV luciferase replicon [3]; compound alone, other compound 0 nM): 0.020 nM |
| CC(C)OC(=O)[C@H](C)NP(=O)(OC[C@H]1OC(n2ccc(NC(=O)C3Cc4ccccc4C3)nc2=O)C(F)(F)[C@@H]1O)Oc1ccccc1 (stereo in doubt) [Compound 13, (2S)-isopropyl 2-(((R)-(((2R,3R)-5-(4-(2,3-dihydro-1H-indene-2-carboxamido)-2-oxopyrimidin-1(2H)-yl)-4,4-difluoro-3-hydroxytetrahydrofuran-2-yl)methoxy)(phenoxy)phosphoryl)amino)-propanoate] |  | 684 |  | IC50 (HCV luciferase replicon [1]; Huh-7, 48 h): 0.345 µM; CC50 at 48 h [2]: 236 µM |

— patent US10059733B2 (NUCORION PHARMACEUTICALS, INC., priority 2014, dated 2018)
